From patent publication US8309734B2 (Hoffmann-La Roche Inc., priority 2008, dated 2012) come the findings set out here.

The structures appear in SMILES notation.

The assay has as its target T1, human GPBAR1 receptor (Homo sapiens, UniProt Q8TDU6).
T1 construct: expressed in transfected cells
T1 sequence (Q8TDU6 1-330): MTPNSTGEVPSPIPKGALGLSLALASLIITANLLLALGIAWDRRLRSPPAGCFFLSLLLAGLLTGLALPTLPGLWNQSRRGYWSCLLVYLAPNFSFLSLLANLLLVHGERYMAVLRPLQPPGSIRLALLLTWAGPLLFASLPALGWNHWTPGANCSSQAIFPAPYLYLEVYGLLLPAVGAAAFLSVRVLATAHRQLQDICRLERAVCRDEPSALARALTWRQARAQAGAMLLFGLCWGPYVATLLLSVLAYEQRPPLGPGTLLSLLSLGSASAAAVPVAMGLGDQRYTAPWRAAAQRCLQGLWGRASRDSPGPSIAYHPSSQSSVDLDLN
The experiment in a line: functional cAMP assay in CHO-dhfr(minus) cells expressing human GPBAR1 receptors. It is filed as cell-based. Particulars: cAMP increase (TR-FRET) in CHO-dhfr(minus) cells expressing human GPBAR1; compounds incubated 30 min at 30° C.
`COc1ccccc1N(C)C(=O)c1ccncc1Oc1ccc(F)c(Cl)c1` [Example 108, 3-(3-Chloro-4-fluoro-phenoxy)-N-(2-methoxy-phenyl)-N-methyl-isonicotinamide] displayed a half-maximal effective concentration (EC50) of 122 nM. In turn, `Cc1cc(F)c2c(c1)CCCN2C(=O)c1ccccc1Oc1cc(Cl)ccc1Cl` [Example 120, [2-(2,5-Dichloro-phenoxy)-phenyl]-(8-fluoro-6-methyl-3,4-dihydro-2H-quinolin-1-yl)-methanone] yielded an EC50 of 1650 nM. With `Cc1cccc(Cl)c1N(C)C(=O)c1cccnc1Oc1cc(Cl)ccc1Cl` [Example 51, N-(2-Chloro-6-methyl-phenyl)-2-(2,5-dichloro-phenoxy)-N-methyl-nicotinamide], it took 59 nM to reach a half-maximal effect (EC50). Compared with the last compound, the EC50 is about 28-fold lower.

On to `O=C(c1ccncc1Oc1ccc(F)c(Cl)c1)N1CCCc2cc(F)cc(F)c21` [Example 105, [3-(3-Chloro-4-fluoro-phenoxy)-pyridin-4-yl]-(6,8-difluoro-3,4-dihydro-2H-quinolin-1-yl)-methanone], for which the midpoint of the response, the EC50, lay at 138 nM. This EC50 is about 2.3-fold higher than that of the compound before. `O=C(c1cc(F)cnc1Oc1cc(Cl)ccc1Cl)N1CCOc2ccccc21` [Example 81, [2-(2,5-Dichloro-phenoxy)-5-fluoro-pyridin-3-yl]-(2,3-dihydro-benzo[1,4]oxazin-4-yl)-methanone] yielded an EC50 of 78 nM. `CN(C(=O)c1cccnc1Oc1cc(Cl)ccc1Cl)c1ccccc1C1CC1` [Example 131, N-(2-Cyclopropyl-phenyl)-2-(2,5-dichloro-phenoxy)-N-methyl-nicotinamide] yielded an EC50 of 321 nM. The same measure for `N#Cc1ccc(Oc2cc(Cl)ccc2Cl)c(C(=O)N2CCCc3ccccc32)c1` [Example 119, 4-(2,5-Dichloro-phenoxy)-3-(3,4-dihydro-2H-quinoline-1-carbonyl)-benzo nitrile]: 165 nM; for `O=C(c1cc(F)cnc1Oc1cc(Cl)ccc1Cl)N1Cc2cccn2-c2ccccc21` [Example 149]: 155 nM; for `O=C(c1cccnc1Oc1cc(Cl)ccc1Cl)N1CCCc2cc(F)ccc21` [Example 37, [2-(2,5-Dichloro-phenoxy)-pyridin-3-yl]-(6-fluoro-3,4-dihydro-2H-quinolin-1-yl)-methanone]: 28 nM. For `CC(=O)OCCN1CCN(C(=O)c2cccnc2Oc2cc(Cl)ccc2Cl)c2ccccc21` [Example 140, Acetic acid 2-{4-[2-(2,5-dichloro-phenoxy)-pyridine-3-carbonyl]-3,4-dihydro-2H-quinoxalin-1-yl}-ethyl ester], the concentration giving a half-maximal response (EC50) worked out at 259 nM. The same measure for `CCc1cccc(Oc2ncccc2C(=O)N2CCCc3ccccc32)c1` [Example 20, (3,4-Dihydro-2H-quinolin-1-yl)-[2-(3-ethyl-phenoxy)-pyridin-3-yl]-methanone]: 473 nM; for `CN(C(=O)c1cccnc1Oc1cc(Cl)ccc1Cl)c1ccccc1` [Example 35, 2-(2,5-Dichloro-phenoxy)-N-methyl-N-phenyl-nicotinamide]: 283 nM. Under `O=C(c1cccnc1Oc1cc(Cl)ccc1Cl)N1CCOc2c(F)cc(F)cc21` [Example 73, [2-(2,5-Dichloro-phenoxy)-pyridin-3-yl]-(6,8-difluoro-2,3-dihydro-benzo[1,4]oxazin-4-yl)-methanone] stands 418 nM; under `COc1ccccc1N(C)C(=O)c1cccnc1Oc1cc(Cl)ccc1Cl` [Example 42, 2-(2,5-Dichloro-phenoxy)-N-(2-methoxy-phenyl)-N-methyl-nicotinamide], 20 nM.

`O=C(c1cccnc1Oc1ccc(Cl)c(Cl)c1)N1CCCc2ccccc21` [Example 6, [2-(3,4-Dichloro-phenoxy)-pyridin-3-yl]-(3,4-dihydro-2H-quinolin-1-yl)-methanone] showed an EC50 of 996 nM. `CCN(C(=O)c1cccnc1Oc1cc(Cl)ccc1Cl)c1ccccc1` [Example 32, 2-(2,5-Dichloro-phenoxy)-N-ethyl-N-phenyl-nicotinamide]: the EC50 was found to be 70 nM. Under `O=C(c1ccccc1Oc1cc(Cl)ccc1Cl)N1CCCc2cc(F)cc(F)c21` [Example 121, [2-(2,5-Dichloro-phenoxy)-phenyl]-(6,8-difluoro-3,4-dihydro-2H-quinolin-1-yl)-methanone] stands 231 nM; under `O=C(c1cccnc1Oc1cccc(Br)c1)N1CCCc2ccccc21` [Example 23, [2-(3-Bromo-phenoxy)-pyridin-3-yl]-(3,4-dihydro-2H-quinolin-1-yl)-methanone], 232 nM. `O=C(c1cc(Cl)cnc1Oc1cc(F)ccc1F)N1CCCc2ccccc21` [Example 28, [5-Chloro-2-(2,5-difluoro-phenoxy)-pyridin-3-yl]-(3,4-dihydro-2H-quinolin-1-yl)-methanone] yielded an EC50 of 1980 nM. Under `O=C(c1cc(F)cnc1Oc1cc(Cl)ccc1Cl)N1CCCc2ccccc21` [Example 83, [2-(2,5-Dichloro-phenoxy)-5-fluoro-pyridin-3-yl]-(3,4-dihydro-2H-quinolin-1-yl)-methanone] stands 13 nM.
